Converted amounts (≈) assume the structure as drawn. A value given as a limit tells only on which side of the number the result lay.

Broadly, the MIC is the lowest concentration that inhibits growth of the organism. A high value points to a less susceptible organism. As usually defined, the CC50 is the concentration at which the toxic effect on the cells reaches its halfway point. Low readings indicate greater toxicity to the cells, high ones lower toxicity to the cells.

Data set [1] concerns Mycobacterium tuberculosis. As to the kind of experiment: Antitubercular activity against Mycobacterium tuberculosis H37Rv incubated for 6 days by resazurin dye based fluorescence assay. It counts as functional. Particulars: 144 h. Background: The colour change of resazurin is a common sign of viable cells or microbes.
Data set [2] is described as follows: Cytotoxicity against human HepG2 cells incubated for 48 hrs by CellTiter Glo assay. It counts as cell-based. (ATP-based viability assays read luminescence as a measure of living cells.)
A short description of data set [3]: Protection Index, ratio of CC50 for human HepG2 cells to MIC for Mycobacterium tuberculosis H37Rv. It counts as toxicity. The note with it: read-out: PI.

In data set [1], `CC(C)n1nc(CN2CCOCC2)cc1-c1ccc(C(F)(F)F)cc1` displayed an MIC of 23 µM (≈ 8.13 µg/mL). In data set [2], the CC50 at 48 h is > 100 µM. The selectivity ratio in data set [3] is > 4.

In data set [1], `COC1CCN(Cc2cc(-c3ccc(C(F)(F)F)cc3)n(C(C)C)n2)CC1` registered an MIC of 2.5 µM (≈ 0.954 µg/mL). In addition, in data set [2], the CC50 at 48 h turned out to be 79.4 µM. For the same molecule, in data set [3], the selectivity ratio stood at 32.

Take `COC1CCCN(Cc2cc(-c3ccc(C(C)C)cc3)n(-c3ccc(F)cc3)n2)C1` (stereo not given): in data set [1], the MIC came out at 2.4 µM (≈ 0.978 µg/mL). The molecule further showed a CC50 at 48 h in data set [2] of 32 µM. In data set [3], the selectivity ratio was found to be 13.

Regarding `CC(C)c1ccc(-c2cc(CN3CCOCC3)nn2-c2ccc(F)cc2)cc1`, the MIC in data set [1] amounted to 5 µM (≈ 1.9 µg/mL). In data set [2], this molecule showed a half-maximal cytotoxic concentration (CC50) at 48 h of 50.1 µM. The selectivity ratio in data set [3] was determined as 10.

For the molecule `CC(C)c1ccc(-c2cc(CN3CCC(O)CC3)nn2-c2ccc(F)cc2)cc1`, the MIC in data set [1] is 10 µM (≈ 3.94 µg/mL). Besides, in data set [2], the CC50 at 48 h came out at 20 µM. In addition, the selectivity ratio in data set [3] is 2.

Turning to `COC1CCN(Cc2cc(-c3ccc(C(F)(F)F)cc3)n(C3CCCCC3)n2)CC1`, the MIC in data set [1] is 1.2 µM (≈ 0.506 µg/mL). This molecule came in with a CC50 at 48 h in data set [2] of 31.6 µM. The selectivity ratio in data set [3] is 26.

As to `Cc1cc(CN2CCOCC2)nn1C1CCCCC1`, it took 2.5 µM (≈ 0.658 µg/mL) to inhibit growth in data set [1] (MIC). The same molecule returned a CC50 at 48 h in data set [2] of 50 µM. In addition, in data set [3], the selectivity ratio amounted to 20.

Consider `CC(C)(C)OC(=O)N1CCN(Cc2cc(-c3ccc(C(F)(F)F)cc3)n(C3CCCCC3)n2)CC1`, for which the MIC in data set [1] was 2 µM (≈ 0.985 µg/mL). The CC50 at 48 h in data set [2] is > 100 µM. For the same molecule, the selectivity ratio in data set [3] was > 50.

In turn, `CC(C)c1ccc(-c2cc(CN3CCN(C(=O)OC(C)(C)C)CC3)nn2C2CCCCC2)cc1` returned an MIC in data set [1] of 1 µM (≈ 0.467 µg/mL). The molecule also showed a CC50 at 48 h in data set [2] of 40 µM. Moreover, the selectivity ratio in data set [3] was found to be 40.

Molecule `Fc1ccc(-n2nc(CN3CCOCC3)cc2-c2ccc(C(F)(F)F)cc2)cc1` displayed an MIC in data set [1] of 20 µM (≈ 8.11 µg/mL). The same molecule yielded a CC50 at 48 h in data set [2] of 100 µM. Further, in data set [3], the selectivity ratio came to 5.

In data set [1], `CC(C)c1ccc(-c2cc(CN3CCC(O)CC3)nn2C2CCCCC2)cc1` had a minimum inhibitory concentration (MIC) of 42 µM (≈ 16 µg/mL). This molecule had a CC50 at 48 h in data set [2] of 63 µM. Further, the selectivity ratio in data set [3] came out at 1.5.

For `COC1CCN(Cc2cc(-c3ccc(C(C)C)cc3)n(C3CCCCC3)n2)CC1`, the MIC in data set [1] came to 0.6 µM (≈ 0.237 µg/mL). In addition, half-maximal cytotoxicity in data set [2] (CC50 at 48 h) was put at 12.6 µM. In data set [3], the selectivity ratio worked out at 21.

Turning to `CC(C)c1ccc(-c2cc(CN3CCCC(O)C3)nn2-c2ccc(F)cc2)cc1` (stereo not given), it took 20 µM (≈ 7.87 µg/mL) to inhibit growth in data set [1] (MIC). In data set [2], the CC50 at 48 h amounted to 25.1 µM. Also, the selectivity ratio in data set [3] turned out to be 1.25.

`CC(C)c1ccc(-c2cc(CN3CCN(C)CC3)nn2C2CCCCC2)cc1`: 21 µM (≈ 7.99 µg/mL) was the least that counted as inhibitory in data set [1] (MIC). The molecule also displayed a CC50 at 48 h in data set [2] of 10 µM. Besides, the selectivity ratio in data set [3] is 0.5.

As to `CC(C)(C)OC(=O)N1CCN(Cc2cc(-c3ccc(C(F)(F)F)cc3)n(-c3ccc(F)cc3)n2)CC1`, it took 4 µM (≈ 2.02 µg/mL) to inhibit growth in data set [1] (MIC). The CC50 at 48 h in data set [2] is > 100 µM. Also, the selectivity ratio in data set [3] is > 25.

On to `CC(C)c1ccc(-c2cc(CN3CCOCC3)nn2C2CCCOC2)cc1` (stereo not given), for which, in data set [1], the MIC stood at 2 µM (≈ 0.739 µg/mL). Moreover, the CC50 at 48 h in data set [2] was > 100 µM. The selectivity ratio in data set [3] is > 50.

Molecule `Cc1c(CN2CCOCC2)nc(-c2ccc(C(C)C)cc2)n1-c1ccc(F)cc1` had a minimum inhibitory concentration (MIC) in data set [1] of 40 µM (≈ 15.7 µg/mL). The same molecule gave a CC50 at 48 h in data set [2] of 50.1 µM. The selectivity ratio in data set [3] was found to be 1.25.

For the molecule `FC(F)(F)c1ccc(-c2cc(CN3CCOCC3)nn2C2CCCCC2)cc1`, in data set [1], inhibition of growth (MIC) required 2.5 µM (≈ 0.984 µg/mL). Also, the CC50 at 48 h in data set [2] is 50 µM. For the same molecule, the selectivity ratio in data set [3] was 20.

In data set [1], `CC(C)c1ccc(-c2cc(CN3CCCC(O)C3)nn2C(C)C)cc1` (stereo not given) came in with an MIC of 1 µM (≈ 0.341 µg/mL). It took 50 µM to reach half-maximal cytotoxicity in data set [2] (CC50 at 48 h). For the same molecule, in data set [3], the selectivity ratio is 50.

For the molecule `CC(C)c1ccc(-c2cc(CN3CCSCC3)nn2C2CCCCC2)cc1`, in data set [1], it took 1.3 µM (≈ 0.499 µg/mL) to inhibit growth (MIC). It took 40 µM to reach half-maximal cytotoxicity in data set [2] (CC50 at 48 h). Further, the selectivity ratio in data set [3] was 31.

`FC(F)(F)c1ccc(-c2cc(CN3CCSCC3)nn2C2CCCCC2)cc1` returned an MIC in data set [1] of 1.2 µM (≈ 0.491 µg/mL). The molecule further displayed a CC50 at 48 h in data set [2] of 63.1 µM. The selectivity ratio in data set [3] was 53.

`COC1CCCN(Cc2cc(-c3ccc(C(C)C)cc3)n(C3CCCCC3)n2)C1` (stereo not given): 2.5 µM (≈ 0.989 µg/mL) was the least that counted as inhibitory in data set [1] (MIC). For the same molecule, in data set [2], the CC50 at 48 h came out at 20 µM. Besides, the selectivity ratio in data set [3] turned out to be 8.

With `Cc1c(CN2CCOCC2)nn(-c2ccc(C(C)C)cc2)c1-c1ccc(F)cc1`, the minimal inhibitory concentration (MIC) in data set [1] was found to be 50 µM (≈ 19.7 µg/mL). In addition, the CC50 at 48 h in data set [2] was > 100 µM. Also, the selectivity ratio in data set [3] was > 2.

`CC(C)c1ccc(-c2cc(CN3CCOCC3)nn2C(C)C)cc1` returned an MIC in data set [1] of 1.75 µM (≈ 0.573 µg/mL). The CC50 at 48 h in data set [2] worked out at 79.4 µM. Also, the selectivity ratio in data set [3] turned out to be 45.

`COC1CCN(Cc2cc(C)n(C3CCCCC3)n2)CC1` yielded a minimal inhibitory concentration (MIC) in data set [1] of 50 µM (≈ 14.6 µg/mL). In addition, the CC50 at 48 h in data set [2] was > 100 µM. The selectivity ratio in data set [3] is > 2.

Regarding `COC1CCN(Cc2cc(-c3ccc(C)nc3)n(C3CCCCC3)n2)CC1`, in data set [1], 50 µM (≈ 18.4 µg/mL) was the least that counted as inhibitory (MIC). The CC50 at 48 h in data set [2] is > 100 µM. In data set [3], the selectivity ratio is > 2.

Take `COC1CCN(Cc2nn(-c3ccc(C(C)C)cc3)c(-c3ccc(F)cc3)c2C)CC1`: in data set [1], the MIC is 50 µM (≈ 21.1 µg/mL).

Molecule `Cc1ccc(-c2cc(CN3CCOCC3)nn2C2CCCCC2)cn1` yielded an MIC in data set [1] of 50 µM (≈ 17 µg/mL). For the same molecule, the CC50 at 48 h in data set [2] is > 100 µM. In addition, in data set [3], the selectivity ratio is > 2.

In data set [1], `CC(C)c1ccc(-c2cc(CN3CCNCC3)nn2C2CCCCC2)cc1` gave an MIC of 20 µM (≈ 7.33 µg/mL).

In data set [1], `Fc1ccc(-n2nc(CN3CCSCC3)cc2-c2ccc(C(F)(F)F)cc2)cc1` displayed an MIC of 4.7 µM (≈ 1.98 µg/mL). Moreover, it took 79.4 µM to reach half-maximal cytotoxicity in data set [2] (CC50 at 48 h). Also, the selectivity ratio in data set [3] turned out to be 17.

In turn, `COC1CCN(Cc2cc(-c3ccc(C(C)C)cc3)n(C3CCCOC3)n2)CC1` (stereo not given) showed an MIC in data set [1] of 2.5 µM (≈ 0.994 µg/mL). The molecule further registered a CC50 at 48 h in data set [2] of 50 µM. Also, the selectivity ratio in data set [3] was 20.

`CC(C)c1ccc(-c2cc(CN3CCN(C(=O)OC(C)(C)C)CC3)nn2-c2ccc(F)cc2)cc1` yielded an MIC in data set [1] of 2 µM (≈ 0.957 µg/mL). This molecule had a CC50 at 48 h in data set [2] of 80 µM. The selectivity ratio in data set [3] was 40.

In data set [1], `FC(F)(F)c1ccc(-c2cc(CN3CCN(c4ccccn4)CC3)nn2C2CCCCC2)cc1` registered an MIC of 1 µM (≈ 0.47 µg/mL). It took 50 µM to reach half-maximal cytotoxicity in data set [2] (CC50 at 48 h). For the same molecule, in data set [3], the selectivity ratio turned out to be 50.

As for `COC1CCN(Cc2nc(-c3ccc(C(C)C)cc3)n(-c3ccc(F)cc3)c2C)CC1`, the MIC in data set [1] was 40 µM (≈ 16.9 µg/mL).

In data set [1], `FC(F)(F)c1ccc(-c2cc(CN3CCCCC3)nn2C2CCCCC2)cc1` came in with an MIC of 2.5 µM (≈ 0.979 µg/mL). This molecule had a CC50 at 48 h in data set [2] of 50 µM. Also, the selectivity ratio in data set [3] was found to be 20.

`CC(C)c1ccc(-c2cc(CN3CCN(C)CC3)nn2-c2ccc(F)cc2)cc1` registered an MIC in data set [1] of 20 µM (≈ 7.85 µg/mL). Also, in data set [2], half-maximal cytotoxicity (CC50 at 48 h) was put at 12.6 µM. For the same molecule, the selectivity ratio in data set [3] worked out at 0.6.

`Fc1ccc(-n2nc(CN3CCN(c4ccccn4)CC3)cc2-c2ccc(C(F)(F)F)cc2)cc1` had an MIC in data set [1] of 2 µM (≈ 0.963 µg/mL). Moreover, in data set [2], the CC50 at 48 h was 32 µM. Also, the selectivity ratio in data set [3] turned out to be 16.

Regarding `COC1CCN(Cc2cc(-c3ccc(C(C)C)cc3)n(C(C)C)n2)CC1`, 50 µM (≈ 17.8 µg/mL) was the least that counted as inhibitory in data set [1] (MIC). In other words, the double-digit micromolar range.

With `Fc1ccc(-n2nc(CN3CCCCC3)cc2-c2ccc(C(F)(F)F)cc2)cc1`, the MIC in data set [1] is 2.5 µM (≈ 1.01 µg/mL). In data set [2], this molecule returned a CC50 at 48 h of 40 µM. Also, the selectivity ratio in data set [3] came out at 16.

Take `NNC(=O)c1ccncc1` [ISONIAZID]: the MIC in data set [1] worked out at 1.8 µM (≈ 0.247 µg/mL). This lies in the single-digit micromolar range.

Values taken from ChEMBL document CHEMBL4304832, “Novel Pyrazole-Containing Compounds Active against Mycobacterium tuberculosis” (ACS Med Chem Lett, 2019).
